Assay in all cases: in vitro susceptibility, MIC by mini broth dilution
Common to all, as to type: cell-based
A general note: In broth dilution the organism is exposed to a series of concentrations in liquid medium.

For test [1], the system named is Staphylococcus aureus CVCC26003. The conditions noted are these: strain CVCC26003. A digest of the protocol:
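MICs were determined by mini broth dilution under NCCLS standards in CAMHB, using revived S. aureus CVCC26003 subcultured 20 h at 35° C. Compounds were two-fold serially diluted in DMSO across 11 wells, with duplicate rows. Bacterial suspension was diluted 1:200 in medium before inoculation.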

The subject of test [2] is Pasteurella multocida CVCC399. The following applies: strain CVCC399. A digest of the protocol:
(§1)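 MICs determined by mini broth dilution per NCCLS (now CLSI) standards. Strains revived from −20° C, subcultured twice on solid medium at 35° C for 20 h; compounds two-fold serially diluted in DMSO over 11 gradients, duplicate rows, bacterial suspension diluted 1:200 in liquid medium.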

The subject of test [3] is Actinobacillus pleuropneumoniae CVCC262. The following applies: strain CVCC262. A digest of the protocol:
as §1

The test system of test [4] is Streptococcus equines CVCC556. The conditions noted are these: strain CVCC556. The gist of the method: as §1
A further test concerns Haemophilus parasuis. The gist of the method:
as §1

As to `CCCN1C[C@H](C)[C@@H](O)[C@](C)(O)[C@@H](CC)OC(=O)[C@H](C)[C@@H](O[C@H]2C[C@@](C)(OC)[C@](O)(CNCc3ccccc3F)[C@H](C)O2)[C@H](C)[C@@H](O[C@@H]2O[C@H](C)C[C@H](N(C)C)[C@H]2O)[C@](C)(O)C[C@H]1C` [syzx-192], the “MIC values, Staphylococcus aureus CVCC26003” value in test [1] came to 4 ug/mi. Besides, in test [2], the “MIC values, Pasteurella multocida CVCC399” value worked out at 4 ug/mi. Besides, in test [3], the “MIC values, Actinobacillus pleuropneumoniae CVCC262” value is 4 ug/mi. Besides, the “MIC values, Streptococcus equines CVCC556” value in test [4] came out at 0.5 ug/mi. In the test on Haemophilus parasuis, the “MIC values, Haemophilus parasuis” value was 4 ug/mi.

Turning to `CCCN1C[C@H](C)[C@@H](O)[C@](C)(O)[C@@H](CC)OC(=O)[C@H](C)[C@@H](O[C@H]2C[C@@](C)(OC)[C@](O)(CNCC3CCNCC3)[C@H](C)O2)[C@H](C)[C@@H](O[C@@H]2O[C@H](C)C[C@H](N(C)C)[C@H]2O)[C@](C)(O)C[C@H]1C` [syzx-193], the “MIC values, Staphylococcus aureus CVCC26003” value in test [1] stood at 4 ug/mi. In addition, the “MIC values, Pasteurella multocida CVCC399” value in test [2] is given as 2 ug/mi. For the same molecule, the “MIC values, Actinobacillus pleuropneumoniae CVCC262” value in test [3] came out at 4 ug/mi. In addition, the “MIC values, Streptococcus equines CVCC556” value in test [4] is 0.25 ug/mi. Further, in the test with Haemophilus parasuis, the “MIC values, Haemophilus parasuis” value turned out to be 2 ug/mi.

Take `CCCN1C[C@H](C)[C@@H](O)[C@](C)(O)[C@@H](CC)OC(=O)[C@H](C)[C@@H](O[C@H]2C[C@@](C)(OC)[C@](O)(CNc3ccc(Cl)cc3C)[C@H](C)O2)[C@H](C)[C@@H](O[C@@H]2O[C@H](C)C[C@H](N(C)C)[C@H]2O)[C@](C)(O)C[C@H]1C` [syzx-197]: the “MIC values, Staphylococcus aureus CVCC26003” value in test [1] was 0.25 ug/mi. In addition, the “MIC values, Pasteurella multocida CVCC399” value in test [2] was 1 ug/mi. The “MIC values, Actinobacillus pleuropneumoniae CVCC262” value in test [3] amounted to 0.5 ug/mi. In addition, the “MIC values, Streptococcus equines CVCC556” value in test [4] is given as 0.25 ug/mi. Further, the “MIC values, Haemophilus parasuis” value against Haemophilus parasuis is reported as 0.25 ug/mi.

For the molecule `CCCCN(C)C[C@]1(O)[C@H](C)O[C@@H](O[C@H]2[C@H](C)[C@@H](O[C@@H]3O[C@H](C)C[C@H](N(C)C)[C@H]3O)[C@](C)(O)C[C@@H](C)N(CCC)C[C@H](C)[C@@H](O)[C@](C)(O)[C@@H](CC)OC(=O)[C@@H]2C)C[C@@]1(C)OC` [syzx-198], the “MIC values, Staphylococcus aureus CVCC26003” value in test [1] came to 1 ug/mi. In addition, in test [2], the “MIC values, Pasteurella multocida CVCC399” value is 4 ug/mi. Also, in test [3], the “MIC values, Actinobacillus pleuropneumoniae CVCC262” value amounted to 0.5 ug/mi. Moreover, the “MIC values, Streptococcus equines CVCC556” value in test [4] is reported as 0.5 ug/mi. Further, the “MIC values, Haemophilus parasuis” value with Haemophilus parasuis worked out at 0.5 ug/mi.

For the molecule `CCCN1C[C@H](C)[C@@H](O)[C@](C)(O)[C@@H](CC)OC(=O)[C@H](C)[C@@H](O[C@H]2C[C@@](C)(OC)[C@](O)(CNc3nc(Cl)cc(Cl)n3)[C@H](C)O2)[C@H](C)[C@@H](O[C@@H]2O[C@H](C)C[C@H](N(C)C)[C@H]2O)[C@](C)(O)C[C@H]1C` [syzx-202], the “MIC values, Staphylococcus aureus CVCC26003” value in test [1] came out at 2 ug/mi. In test [2], the “MIC values, Pasteurella multocida CVCC399” value worked out at 2 ug/mi. Besides, the “MIC values, Actinobacillus pleuropneumoniae CVCC262” value in test [3] is listed as 2 ug/mi. Moreover, in test [4], the “MIC values, Streptococcus equines CVCC556” value is on record as 0.25 ug/mi. For the same molecule, in the test with Haemophilus parasuis, the “MIC values, Haemophilus parasuis” value came to 4 ug/mi.

On to `CCCN1C[C@H](C)[C@@H](O)[C@](C)(O)[C@@H](CC)OC(=O)[C@H](C)[C@@H](O[C@H]2C[C@@](C)(OC)[C@](O)(CNC3CCCCCC3)[C@H](C)O2)[C@H](C)[C@@H](O[C@@H]2O[C@H](C)C[C@H](N(C)C)[C@H]2O)[C@](C)(O)C[C@H]1C` [syzx-203], for which the “MIC values, Staphylococcus aureus CVCC26003” value in test [1] came out at 1 ug/mi. For the same molecule, in test [2], the “MIC values, Pasteurella multocida CVCC399” value came to 0.25 ug/mi. In addition, the “MIC values, Actinobacillus pleuropneumoniae CVCC262” value in test [3] is given as 1 ug/mi. In addition, the “MIC values, Streptococcus equines CVCC556” value in test [4] was found to be 1 ug/mi. The “MIC values, Haemophilus parasuis” value against Haemophilus parasuis is listed as 0.5 ug/mi.

For the molecule `CCCN1C[C@H](C)[C@@H](O)[C@](C)(O)[C@@H](CC)OC(=O)[C@H](C)[C@@H](O[C@H]2C[C@@](C)(OC)[C@](O)(CN3CCOCC3)[C@H](C)O2)[C@H](C)[C@@H](O[C@@H]2O[C@H](C)C[C@H](N(C)C)[C@H]2O)[C@](C)(O)C[C@H]1C` [syzx-204], the “MIC values, Staphylococcus aureus CVCC26003” value in test [1] is 4 ug/mi. Besides, in test [2], the “MIC values, Pasteurella multocida CVCC399” value worked out at 4 ug/mi. In addition, the “MIC values, Actinobacillus pleuropneumoniae CVCC262” value in test [3] stood at 4 ug/mi. Besides, the “MIC values, Streptococcus equines CVCC556” value in test [4] is recorded as 0.5 ug/mi. Besides, the “MIC values, Haemophilus parasuis” value in the test on Haemophilus parasuis was 4 ug/mi.

With `CCCN1C[C@H](C)[C@@H](O)[C@](C)(O)[C@@H](CC)OC(=O)[C@H](C)[C@@H](O[C@H]2C[C@@](C)(OC)[C@](O)(CNCCCC(OC)OC)[C@H](C)O2)[C@H](C)[C@@H](O[C@@H]2O[C@H](C)C[C@H](N(C)C)[C@H]2O)[C@](C)(O)C[C@H]1C` [syzx-205], in test [1], the “MIC values, Staphylococcus aureus CVCC26003” value amounted to 4 ug/mi. Also, in test [2], the “MIC values, Pasteurella multocida CVCC399” value was determined as 4 ug/mi. Also, the “MIC values, Actinobacillus pleuropneumoniae CVCC262” value in test [3] worked out at 4 ug/mi. In test [4], the “MIC values, Streptococcus equines CVCC556” value amounted to 0.5 ug/mi. Further, the “MIC values, Haemophilus parasuis” value against Haemophilus parasuis is on record as 4 ug/mi.

As to `CCCN1C[C@H](C)[C@@H](O)[C@](C)(O)[C@@H](CC)OC(=O)[C@H](C)[C@@H](O[C@H]2C[C@@](C)(OC)[C@](O)(CNN3CCCCC3)[C@H](C)O2)[C@H](C)[C@@H](O[C@@H]2O[C@H](C)C[C@H](N(C)C)[C@H]2O)[C@](C)(O)C[C@H]1C` [syzx-206], the “MIC values, Staphylococcus aureus CVCC26003” value in test [1] stood at 0.5 ug/mi. The “MIC values, Pasteurella multocida CVCC399” value in test [2] was found to be 0.5 ug/mi. Also, the “MIC values, Actinobacillus pleuropneumoniae CVCC262” value in test [3] is recorded as 0.25 ug/mi. In test [4], the “MIC values, Streptococcus equines CVCC556” value turned out to be 0.25 ug/mi. The “MIC values, Haemophilus parasuis” value in the test with Haemophilus parasuis is 0.25 ug/mi.

As for `CCCN1C[C@H](C)[C@@H](O)[C@](C)(O)[C@@H](CC)OC(=O)[C@H](C)[C@@H](O[C@H]2C[C@@](C)(OC)[C@](O)(CNc3ccc(Cl)nc3)[C@H](C)O2)[C@H](C)[C@@H](O[C@@H]2O[C@H](C)C[C@H](N(C)C)[C@H]2O)[C@](C)(O)C[C@H]1C` [syzx-208], the “MIC values, Staphylococcus aureus CVCC26003” value in test [1] was found to be 4 ug/mi. Also, the “MIC values, Pasteurella multocida CVCC399” value in test [2] was 4 ug/mi. Besides, the “MIC values, Actinobacillus pleuropneumoniae CVCC262” value in test [3] is given as 4 ug/mi. Further, the “MIC values, Streptococcus equines CVCC556” value in test [4] is 0.5 ug/mi. Moreover, the “MIC values, Haemophilus parasuis” value with Haemophilus parasuis is 4 ug/mi.

Turning to `CCCN1C[C@H](C)[C@@H](O)[C@](C)(O)[C@@H](CC)OC(=O)[C@H](C)[C@@H](O[C@H]2C[C@@](C)(OC)[C@](O)(CN3CCCC3)[C@H](C)O2)[C@H](C)[C@@H](O[C@@H]2O[C@H](C)C[C@H](N(C)C)[C@H]2O)[C@](C)(O)C[C@H]1C` [syzx-209], in test [1], the “MIC values, Staphylococcus aureus CVCC26003” value was 0.25 ug/mi. Further, the “MIC values, Pasteurella multocida CVCC399” value in test [2] is 0.25 ug/mi. For the same molecule, in test [3], the “MIC values, Actinobacillus pleuropneumoniae CVCC262” value was found to be 0.25 ug/mi. Besides, the “MIC values, Streptococcus equines CVCC556” value in test [4] turned out to be 0.25 ug/mi. Moreover, in the test with Haemophilus parasuis, the “MIC values, Haemophilus parasuis” value was found to be 0.25 ug/mi.

As to `CCCN1CC(C)C(O)C(C)(O)C(CC)OC(=O)C(C)C(OC2CC(C)(OC)C(O)(CNc3n[nH]c(S)n3)C(C)O2)C(C)C(OC2OC(C)CC(N(C)C)C2O)C(C)(O)CC1C` (stereo not drawn) [syzx-210], the “MIC values, Staphylococcus aureus CVCC26003” value in test [1] is listed as 2 ug/mi. Besides, the “MIC values, Pasteurella multocida CVCC399” value in test [2] is recorded as 4 ug/mi. Besides, the “MIC values, Actinobacillus pleuropneumoniae CVCC262” value in test [3] is 0.5 ug/mi. Moreover, the “MIC values, Streptococcus equines CVCC556” value in test [4] was 0.25 ug/mi. Also, in the test on Haemophilus parasuis, the “MIC values, Haemophilus parasuis” value was found to be 0.5 ug/mi.

The values above are taken from patent US9765105B2, “Macrolide compound” (Pulike Biological Engineering, Inc., priority 2013, dated 2017).
